Test results reported in US20250319067A1, “Improved Pharmacokinetics of Tryptamine Prodrugs” (Reunion Neuroscience, Inc., priority 2023, published 2025).

Columns and labels:
[1] = test system: rabbit hepatocytes; assay: Hepatocyte intrinsic clearance, rabbit; format: in vitro ADME
Text: In human, rat, rabbit, dog and monkey hepatocytes, the metabolite profile of RE104 was qualitatively similar across these species with only minor differences.

[2] = Prodrug cleavage in mouse plasma; format: in vitro ADME; conditions: 37° C.
Procedure: (§1) Mean values from 3 replicate assays are reported. See the Supplemental Methods for additional details.
(§2) Triplicate aliquots (50 μL) of each spiked plasma solution were immediately added to 200 μL of ice-cold methanol/acetonitrile solution (50:50 v/v) containing the internal standards to generate time zero samples. Spiked plasma solutions were incubated at 37° C. in an orbital shaker set to 75 rpm, and 50-μL samples were taken in triplicate after 30 minutes and 1, 2, and 4 hours of incubation. Each sample was immediately added to 200 μL ofice-cold methanol/acetonitrile solution containing the internal standard(s) to terminate the reaction. Samples were mixed by vortex and then stored at −80° C. until analysis.
(§3) Calibration standards were prepared in plasma for each species and analyzed in batches by LC-MS/MS. Sample batches consisted of 3 replicates of a system suitability standard (containing the analyte and internal standard), the appropriate calibration standards in ascending order including a blank sample without internal standard, a zero sample (with internal standard), and at least 6 nonzero standards and the assay samples, followed by the 3 replicates of the system suitability sample.

[3] = Prodrug cleavage in rat plasma; format: in vitro ADME; conditions: 37° C.
Procedure: as §1, §2, §3

[4] = Metabolite profiling in monkey plasma after SC RE104; format: in vivo, cynomolgus monkey; conditions: pooled plasma 0 to 12 hours post dose, SC 0.5 mg/kg RE104
Text: Blood samples were centrifuged to obtain plasma.

[5] = test system: healthy females; assay: Phase 1 FIH study: modified Drug Effect Questionnaire (DEQ-High); format: in vivo, human; set-up: mean time to peak DEQ-High score: dose or concentration left out as unconfirmed
Procedure: The study was a double-blind, randomized, placebo-controlled Phase 1 single ascending dose study in up to 6 cohorts in healthy females. Eligibility was assessed during a screening period of up to 28 days prior to enrollment. For the treatment period, subjects were admitted to the clinical research unit (CRU) one day prior to the dosing (Day −1). On Day 1, all subjects will received the assigned SC dose of RE104 HCl or placebo in a fed state (after domiciling overnight and consuming a planned evening meal on Day −1 and morning meal on Day 1 while at the CRU). Subjects were allowed to select snacks from a planned menu from 4 hours following dosing. Subjects were discharged from the clinic on Day 2 (−24 hours post-dose) after all required study procedures were completed and if deemed medically fit. Subjects returned to the clinic on Day 10 (±2 days) for a follow up visit.
The Drug Effect Questionnaire (DEQ) Feel/High is widely used in studies of acute subjective response to a variety of substances, to assess two key aspects of subjective experience: (1) the strength of substance effects and (2) desirability of substance effects (Morean et al., 2013). The modified DEQ assesses the extent to which subjects (1) feel any substance effect(s) and (2) feel high. This version of the DEQ includes the following items: “Do you feel a drug effect right now?” (FEEL); “Are you high right now?” (HIGH). FIG. 2 sets out the modified DEQ that was used.
The modified DEQ was used as an 11-point numeric rating scale (0-10) administered by a qualified staff member. The subjects were asked to verbally respond to indicate how strongly they feel the drug effect and how high they feel on the scale of 0-10 after being administered the study drug (Kollltveit et al., 2020).

[6] = target: human recombinant 5-HT2B receptors (Homo sapiens, UniProt P41595); assay: 5-HT2B agonist radioligand binding assay ([125I]DOI)
human recombinant 5-HT2B receptors, sequence (P41595 whole entry): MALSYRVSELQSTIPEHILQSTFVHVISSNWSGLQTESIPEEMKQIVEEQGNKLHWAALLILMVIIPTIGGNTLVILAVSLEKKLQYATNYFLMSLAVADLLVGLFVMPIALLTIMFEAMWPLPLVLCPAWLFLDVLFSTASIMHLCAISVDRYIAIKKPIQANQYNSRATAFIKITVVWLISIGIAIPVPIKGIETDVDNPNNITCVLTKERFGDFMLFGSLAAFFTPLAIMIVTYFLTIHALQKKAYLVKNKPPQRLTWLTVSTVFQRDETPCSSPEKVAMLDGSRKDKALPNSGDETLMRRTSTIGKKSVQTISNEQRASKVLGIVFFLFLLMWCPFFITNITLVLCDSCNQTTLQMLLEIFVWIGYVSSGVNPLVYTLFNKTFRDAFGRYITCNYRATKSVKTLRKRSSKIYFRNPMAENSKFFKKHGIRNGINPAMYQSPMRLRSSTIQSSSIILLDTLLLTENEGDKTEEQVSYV
Procedure: Increasing concentrations of RE104 were incubated with 0.2 nM [^125I]DOI in CHO cell cultures expressing human recombinant 5-HT2B receptors.
Radioligand concentration was measured by scintillation counting; compound binding was calculated as percent inhibition of the binding of [^125I]DOI. In agonist activity assays, test concentrations of RE104 were incubated with HEK-293 cells expressing human recombinant 5-HT2A receptors; IP1 production was detected using homogeneous time-resolved fluorescence. Activation was calculated as a percentage of the response to the positive control (10 μM 5-HT).
Inhibition constants were calculated by using the Cheng-Prusoff equation Ki=IC50/(1+L/KD), where L=radioligand concentration and KD=radioligand affinity for the receptor (determined with a Scatchard plot). In the functional activity assay test concentrations of RE104 were 10 nM, 30 nM, 100 nM, 300 nM, 1 μM, 3 μM, 10 μM, and 30 μM. EC50 and IC50 values were determined by nonlinear regression analysis of the concentration-response curves generated with mean replicate values using Hill equation curve fitting.

[7] = GLP 14-day extended single SC dose toxicity study in dogs; conditions: beagle, dog, sc
[8] = test system: dogs; assay: as above
[9] = Rat PK after single IV or SC RE104 HCl 2 mg/kg (Example 1); conditions: plasma, sc, 2 mg/kg
[10] = Rat plasma PK after IV, PO, SC RE104 or 4-OH-DiPT (Example 3); conditions: 2 mg/kg RE104 IV, vs AUC0-- of equimolar IV 4-OH-DiPT
Procedure: The concentration of test compounds was determined in plasma by LC-MS/MS. […] Pharmacokinetic parameters for each analyte and route of administration were estimated from the plasma concentration-versus-time curves for each animal. Head-twitch response (HTR), also referred to as wet dog shakes, was assessed by observing rats for automatisms consisting of rapid and alternating head rotations (González-Maeso et al. and Halberstadt et al.); HTRs were manually counted using 10-minute intervals up to 2 hours after dosing and again at 3, 3.5, and 4 hours after dosing.
Pharmacokinetic parameters were calculated using Phoenix WinNonlin, version 6.3 or 8.2 (Certara, Princeton, NJ, USA).
For rat PK assessments, approximately 0.25 mL blood was serially collected at 8 time points over 6 hours (5, 15, 30, and 45 minutes, and 1, 2, 4, and 6 hours after dosing) via a surgically placed carotid artery catheter and immediately transferred to tubes containing K2EDTA on ice. For dog PK assessments, approximately 0.5 mL of blood was collected via superficial vein before dose and at 5 (for IV and SC injections only), 15, and 30 minutes and 1, 2, 4, 8, 16, 24, 48, and 72 hours post dose into tubes containing K2EDTA with 10 mM Dichlorvos as the anticoagulant and stabilizer, respectively. […]

## CC(C)N(CCc1c[nH]c2cccc(OC(=O)CCCC(=O)O)c12)C(C)C [RE104]
[1]
  in vitro intrinsic clearance (CLint): 4.88 mL/hr/106 cells
[2]
  completeness of conversion: > 95%
  time of conversion to 4-OH-DiPT: < 30 min
[3]
  completeness of conversion: > 95%
  time of conversion to 4-OH-DiPT: < 30 min
[4]
  share of the total peak area: 71.1%
[5]
  mean time to peak DEQ-High score: 1.1 h
[5]; 33 mg
  Mean Experience Duration: 3.7 h
[5]; 4 hours post dose
  DEQ-High score, all participants: 51
[6]
  IC50: 740 nM
[6]; read-out: binding Ki at the 5-HT2B receptor, CHO cells
  Ki: 1800 nM
[7]; plasma, 8 mg/kg
  AUC(0-t): 4540 ng·h/mL
  Cmax: 3300 ng/mL
[7]; both, in vivo
  NOAEL at 14 days: 8 mg/kg
[8]; dog
  1/10 of HED: 0.44 mg/kg
  1/10 of Human BSA dose: 25.9 mg
  Human BSA dose: 160 mg/m^2
[8]; dog HED vs 5 mg (zwitterion)
  safety margin relative to proposed starting dose: approximately 53 fold
[8]; dog HED vs 48 mg (zwitterion)
  safety margin relative to proposed maximum dose: ~5 fold
[8]; dog NOAEL, BSA conversion factors
  HED: 4.4 mg/kg
[8]; dog, based on a BSA of 1.62 m^2
  Human BSA dose: 259 mg
[8]; expressed as zwitterion, 60 kg human, BSA conversion
  HED of 8 mg/kg in the dog: approximately 267 mg
[9]
  bioavailability: ~100%
[10]
  fm (fraction metabolized): 96.7%
